No end group written: not given here.
Tests used:
[1] = tested on: Jurkat T cells or primary human CD4^+ T cells; assay: Induction of CD69 and CD25 on activated T cells, FACS; format: cell-based; conditions: anti-CD28 mAb and plate-bound anti-CD3 mAb stimulation
Protocol: (§1) Primary human CD4^+ T cells were purified from buffy coats from healthy donors. PBMC were isolated by density gradient centrifugation using Histopaque (Sigma). The lymphocyte layer was collected and CD4^+ T cells were isolated by MACS column using CD4 microbeads (Miltenyi Biotec) (Busch R., et al., J. Immunol. Methods 286:97-109 (2004)).
(§2) One million Jurkat (E6.1) cells or primary human CD4^+ T cells were treated with Hph-1-ctCTLA-4 for 1 hour, then washed with PBS and incubated with 0.25 μg of anti-CD28 mAb (Pharmingen) for 20 min at 4° C. The anti-CD28 mAb bound cells were further activated in 0.05 μg of anti-CD3 mAb (Pharmingen) coated plates for 20 hours. Each cell was stained with anti-CD69-PE and anti-CD25-FITC antibodies (Pharmingen) and analyzed by FACS calibur (Becton Dickinson). The supernatant in each well was analyzed for the level of secreted IL-2 by ELISA (R&D system).
(§3) To examine whether the delivered Hph-1-ctCTLA-4 can inhibit T cell activation, Jurkat T cells or primary human CD4^+ T cells were treated with Hph-1-ctCTLA-4 and stimulated with anti-CD28 mAb and plate-bound anti-CD3 mAb. The levels of activation-induced surface proteins such as CD69 and CD25 were analyzed by FACS.

[2] = tested on: Jurkat T cells and primary human CD4^+ T cells; assay: IL-2 secretion of T cells activated with anti-CD3 and anti-CD28 mAbs, ELISA; format: cell-based; conditions: for inhibition of induction of IL-2 secretion: Jurkat or human CD4^+ T cells, fusion and control proteins
Protocol: as §1, §2, §3

[3] = tested on: OVA-challenged mice; assay: OVA-induced allergic asthma model; conditions: for histological examination of lung tissues, infiltration of inflammatory cells / infiltration of inflammatory cells (eosinophils, macrophages, neutrophils, lymphocytes) into BAL fluid: OVA challenge; for infiltration of inflammatory cells (eosinophils, macrophages, neutrophils, lymphocytes) into BAL fluid: intra-nasal pretreatment
[4] = tested on: Jurkat T cells; assay: Transduction efficiency and kinetics of Hph-1-ctCTLA-4, intracellular staining; format: cell-based
Protocol: Transduction efficiency of Hph-1-HA-ctCTLA-4 was analyzed by intracellular staining using HA-fluorescein mAb (Cell Signaling). After cells were permeablized by cytofix/cytoperm solution (Pharmingen) and incubated with HA-fluorescein mAb at 4° C. for 30 min. Intracellular fluorescence was determined by FACS calibur (Becton Dickinson).
By taking advantage of the capacity of Hph-1-PTD to deliver a large target protein into the cells or organs in vivo through nasal airway, a fusion protein of Hph-1-PTD and the cytoplasmic domain of CTLA-4 (Hph-1-PTD-ctCTLA-4) was constructed as described in FIG. 3A, to be used for local suppression of the immune response in an asthma model. We constructed control proteins comprised of ctCTLA-4 without Hph-1-PTD and Hph-1-ctCTLA-4YF, in which two tyrosine residues essential for its negative function were mutated into phenylalanine. The transduction efficiency of Hph-1-ctCTLA-4 was tested in Jurkat T cells, which are known not to express CTLA-4 on the surface. These cells were treated with different concentrations of Hph-1-ctCTLA-4 for different periods of time, and both the transduction efficiency and kinetics were analyzed by intracellular staining.

[5] = tested on: Zap70, ERK and JNK; assay: Tyrosine phosphorylation of signaling mediators after TcR stimulation; format: cell-based; conditions: T cells
[6] = tested on: Jurkat (E6.1) cells; assay: Transduction efficiency and kinetics of Hph-1-β-gal, western blot; format: cell-based
Protocol: (§4) After the Hph-1-β-gal construct was transduced into each cell line for 1 hour, the cells were washed with PBS and fixed immediately. Then, the fixed cells were incubated with X-Gal solution for 1-3 hours at 37° C. The mice tissue samples from the liver, kidney, heart, lung, spleen and brain were isolated at 12 hours after i.p. injection of Hph-1-β-gal, sectioned (in 10- and 50-μm sections), and assayed using an X-Gal staining kit (Roche) (Schwarze S. R., et al., Science 285:1569-1572 (1999)). The image was captured by fluorescence microscopy (Nikon). Transduction capacity of Hph-1-β-gal was also analyzed by western blot analysis. Equal numbers of cells were solubilized in SDS-PAGE sample buffer and the proteins were resolved on a 12% gel, and blotted onto PVDF, which was probed with monoclonal antibody (1:1,000) to β-gal (Cell Signaling). Bound antibody was detected using horseradish peroxidase-conjugated antibody to mouse IgG (1:5,000), followed by enhanced chemiluminescence (Pierce). To monitor the localization of the Hph-1-PTD-eGFP fusion protein, Hela cells were incubated with 10 μM of Hph-1-eGFP fusion protein for 30 min and the fluorescence of eGFP was analyzed by confocal microscopy (Bio Rad).
Using the purified Hph-1-β-gal fusion protein or the control β-gal protein, transduction efficiency was analyzed by western blot analysis in Jurkat (E6.1) cells. […] (FIG. 11B).

[7] = tested on: HeLa, HepG2, HaCat and NIH3T3; assay: Transduction efficiency in various cell lines, X-gal staining; format: cell-based; conditions: 1 hour incubation with Hph-1-β-gal
Protocol: FIG. 1C are photographs of transduction efficiency of Hph-1 in several cell lines, including HeLa, HepG2, HaCat and NIH3T3. After 1 hour incubation with Hph-1-β-gal, cells were fixed and stained with X-gal solution. The images were then captured by fluorescence microscopy.
as §4, with “Equal numbers of cells were solubilized in SDS-PAGE sample buffer and the proteins were resolved on a 12% gel, and blotted onto PVDF, which was probed with monoclonal antibody (1:1,000) to β-gal (Cell Signaling).” left out, “Rad). […]” for “Rad).”

[8] = single pretreatment, 25 μg, OVA-challenged mice

Row | Substance | induction of surface marker proteins CD69 and CD25 [1] | inhibition of induction of IL-2 secretion [2] | histological examination of lung tissues, infiltration of inflammatory cells [3] | infiltration of inflammatory cells (eosinophils, macrophages, neutrophils, lymphocytes) into BAL fluid ([3]; 25 μg) | production of eotaxin and Th2 type cytokines (IL-5, IL-6, IL-13) in BAL fluid [3, 8] | time to maximal levels of intracellular protein ([4]; after incubation) | transduction into the cells ([4]; intracellular staining) | concentration that effectively blocks T cell activation [2] | level of inhibition of IL-2 secretion compared with CsA ([2]; 10 pM of Hph-1-ctCTLA-4 versus CsA) | fold lower concentration than CsA for comparable inhibition of T cell activation ([2]; versus CsA) | induction of tyrosine phosphorylation of Zap70, ERK and JNK [5] | inflammatory index in the lung ([3]; OVA-challenged mice, pretreated) | OVA-induced airway hyper-responsiveness to methacholine ([3]; nebulized methacholine) | neutrophil and macrophage infiltration ([3]; single administration of about 1 mg/kg through the nasal route before the first OVA challenge) | generation of IFN-γ and TGF-β in BAL fluid [3, 8] | reduction of transduction efficiency at 4° C. ([6]; 4° C.) | concentration dependence of protein transduction ([6]; Jurkat (E6.1) cells) | cells positive for β-gal enzyme activity [7]
1 | Hph-1-ctCTLA-4YF: control protein in which two tyrosine residues essential for its negative function were mutated into phenylalanine (KMLKKRSPLTTGVFVKMPPTEPECEKQFQPFFIPIN; ctCTLA-4YF) [reference compound] | did not show any inhibition | neither ctCTLA-4 without Hph-1-PTD nor Hph-1-ctCTLA-4YF blocked IL-2 secretion | not observed | did not show these inhibitory effects | no inhibition |  |  |  |  |  |  |  |  |  |  |  |  | 
2 | Hph-1-ctCTLA-4: fusion protein of Hph-1-PTD and the cytoplasmic domain of CTLA-4 (KMLKKRSPLTTGVYVKMPPTEPECEKQFQPYFIPIN; ctCTLA-4) | significantly inhibited | concentration dependent manner at picomolar range | Inflammatory cells could not infiltrate through the mucus | prevent against the infiltration of these inflammatory cells into the BAL fluid to the levels observed in the PBS-challenged control group | significantly inhibited | 60 min | concentration-dependent | 10 pM | better or equivalent | 1000 fold | markedly inhibited | significantly reduced | substantially attenuated | effectively inhibited | not found to affect |  |  | 
3 | Hph-1-PTD: protein transduction domain of 11 amino acids (YARVRRRGPRR) from human transcriptional factor Hph-1; tested as β-gal fusion (also: tested as β-gal fusion; listed as Homo sapiens) |  |  |  |  |  |  |  |  |  |  |  |  |  |  |  | 40% | concentration-dependent manner | ~100%
